The target of assay [1] is I-Ed (Mus musculus, UniProt P01904+P01915). Conditions: pH 5 as compared with pH 7; cited from earlier work.
Assay [2] concerns the target I-Ak (Mus musculus, UniProt P01910+P06343). In words: Peptide binding immunoassay. Conditions: 250 μM unlabeled HEL(46-61) vs biotin-HEL(46-61), 68 h.

As for GMNAWVAWRNR.CKGTDVY [HEL(104-120)], in assay [1], the apparent affinity result is reported as “increased”, the “apparent concentration (number) of peptide-binding sites” value is “increased”, the effect on dissociation entry is recorded as “no measurable effect” and the rate of association result is reported as “increased”.
Turning to NTDGSTDYGILQINSR [HEL(46-61)], in assay [2], the “nonspecific signal remaining with unlabeled competitor” value is given as < 10 % of maximal absorbance.
